Measured values published in ChEMBL document CHEMBL4507296 (2021).

What was measured:
[1] = biological target: Transient receptor potential cation channel subfamily M member 8 (Homo sapiens, UniProt Q7Z2W7); assay: Assay (coming soon)
[2] = biological target: 5-hydroxytryptamine receptor 1A (Homo sapiens) (UniProt P08908); conditions: Compound concentration 10.0 uM
[3] = biological target: 5-hydroxytryptamine receptor 1B (Homo sapiens) (UniProt P28222); conditions: Compound concentration 10.0 uM
[4] = biological target: 5-hydroxytryptamine receptor 2A (Homo sapiens) (UniProt P28223); conditions: Compound concentration 10.0 uM
[5] = biological target: 5-hydroxytryptamine receptor 2B (Homo sapiens) (UniProt P41595); conditions: Compound concentration 10.0 uM
[6] = biological target: 5-hydroxytryptamine receptor 2C (Homo sapiens) (UniProt P28335); conditions: Compound concentration 10.0 uM
[7] = biological target: 5-hydroxytryptamine receptor 3A (Homo sapiens) (UniProt P46098); conditions: Compound concentration 10.0 uM
[8] = biological target: 5-hydroxytryptamine receptor 5A (Homo sapiens) (UniProt P47898); conditions: Compound concentration 10.0 uM
[9] = biological target: 5-hydroxytryptamine receptor 6 (Homo sapiens) (UniProt P50406); conditions: Compound concentration 10.0 uM
[10] = biological target: 5-hydroxytryptamine receptor 7 (Homo sapiens) (UniProt P34969); conditions: Compound concentration 10.0 uM
[11] = biological target: D(2) dopamine receptor (Homo sapiens) (UniProt P14416); conditions: Compound concentration 10.0 uM
[12] = biological target: D(4) dopamine receptor (Homo sapiens) (UniProt P21917); conditions: Compound concentration 10.0 uM
[13] = biological target: D(1B) dopamine receptor (Homo sapiens) (UniProt P21918); conditions: Compound concentration 10.0 uM
[14] = biological target: Sodium-dependent serotonin transporter (Homo sapiens) (UniProt P31645); conditions: Compound concentration 10.0 uM
[15] = biological target: Sodium-dependent noradrenaline transporter (Homo sapiens) (UniProt P23975); conditions: Compound concentration 10.0 uM
[16] = biological target: Mu-type opioid receptor (Homo sapiens) (UniProt P35372); conditions: Compound concentration 10.0 uM
[17] = biological target: Delta-type opioid receptor (Homo sapiens) (UniProt P41143); conditions: Compound concentration 10.0 uM
[18] = biological target: Kappa-type opioid receptor (Homo sapiens) (UniProt P41145); conditions: Compound concentration 10.0 uM
[19] = biological target: T1, GABA-A receptor; anion channel (Rattus norvegicus) (UniProt O09028+P15431+P18506+P18508+P19969+P20236+P23574+P23576+P28471+P28473+P30191+P62813+P63079+P63138+Q91ZM7+Q9ES14); conditions: Compound concentration 10.0 uM
[20] = biological target: Histamine H1 receptor (Homo sapiens) (UniProt P35367); conditions: Compound concentration 10.0 uM
[21] = biological target: Histamine H3 receptor (Homo sapiens) (UniProt Q9Y5N1); conditions: Compound concentration 10.0 uM
[22] = biological target: Histamine H4 receptor (Homo sapiens) (UniProt Q9H3N8); conditions: Compound concentration 10.0 uM
[23] = biological target: Alpha-1A adrenergic receptor (Homo sapiens) (UniProt P35348); conditions: Compound concentration 10.0 uM
[24] = biological target: Alpha-1B adrenergic receptor (Homo sapiens) (UniProt P35368); conditions: Compound concentration 10.0 uM
[25] = biological target: T2, Alpha-2B adrenergic receptor (Homo sapiens) (UniProt P18089); conditions: Compound concentration 10.0 uM
T2 sequence (whole entry): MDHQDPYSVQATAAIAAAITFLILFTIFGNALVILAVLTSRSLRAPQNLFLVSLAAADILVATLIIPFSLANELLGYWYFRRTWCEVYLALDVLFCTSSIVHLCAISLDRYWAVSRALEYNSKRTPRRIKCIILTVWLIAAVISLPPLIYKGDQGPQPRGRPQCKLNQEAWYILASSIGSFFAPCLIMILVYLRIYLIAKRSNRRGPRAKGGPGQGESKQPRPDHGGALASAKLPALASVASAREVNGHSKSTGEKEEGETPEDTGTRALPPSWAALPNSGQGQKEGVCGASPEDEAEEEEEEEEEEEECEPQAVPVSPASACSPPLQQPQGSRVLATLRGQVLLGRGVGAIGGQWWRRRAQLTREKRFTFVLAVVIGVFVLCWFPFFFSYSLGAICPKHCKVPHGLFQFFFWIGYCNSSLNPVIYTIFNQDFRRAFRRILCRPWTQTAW

[26] = biological target: Alpha-2C adrenergic receptor (Homo sapiens) (UniProt P18825); conditions: Compound concentration 10.0 uM
[27] = biological target: Beta-1 adrenergic receptor (Homo sapiens) (UniProt P08588); conditions: Compound concentration 10.0 uM
[28] = biological target: Beta-2 adrenergic receptor (Homo sapiens) (UniProt P07550); conditions: Compound concentration 10.0 uM
[29] = biological target: Muscarinic acetylcholine receptor M1 (Homo sapiens) (UniProt P11229); conditions: Compound concentration 10.0 uM
[30] = biological target: Muscarinic acetylcholine receptor M2 (Homo sapiens) (UniProt P08172); conditions: Compound concentration 10.0 uM
[31] = biological target: Muscarinic acetylcholine receptor M3 (Homo sapiens) (UniProt P20309); conditions: Compound concentration 10.0 uM
[32] = biological target: Muscarinic acetylcholine receptor M4 (Homo sapiens) (UniProt P08173); conditions: Compound concentration 10.0 uM
[33] = biological target: Muscarinic acetylcholine receptor M5 (Homo sapiens) (UniProt P08912); conditions: Compound concentration 10.0 uM
[34] = biological target: Beta-3 adrenergic receptor (Homo sapiens) (UniProt P13945); conditions: Compound concentration 10.0 uM
[35] = biological target: T1, GABA-A receptor; anion channel (Rattus norvegicus); conditions: Compound concentration 10.0 uM; remark: listed apart in the source
[36] = species: Rattus norvegicus; conditions: Compound concentration 10.0 uM
[37] = biological target: Alpha-1D adrenergic receptor (Homo sapiens) (UniProt P25100); conditions: Compound concentration 10.0 uM

5-hydroxytryptamine receptor 2B (Homo sapiens), sequence (P41595 whole entry): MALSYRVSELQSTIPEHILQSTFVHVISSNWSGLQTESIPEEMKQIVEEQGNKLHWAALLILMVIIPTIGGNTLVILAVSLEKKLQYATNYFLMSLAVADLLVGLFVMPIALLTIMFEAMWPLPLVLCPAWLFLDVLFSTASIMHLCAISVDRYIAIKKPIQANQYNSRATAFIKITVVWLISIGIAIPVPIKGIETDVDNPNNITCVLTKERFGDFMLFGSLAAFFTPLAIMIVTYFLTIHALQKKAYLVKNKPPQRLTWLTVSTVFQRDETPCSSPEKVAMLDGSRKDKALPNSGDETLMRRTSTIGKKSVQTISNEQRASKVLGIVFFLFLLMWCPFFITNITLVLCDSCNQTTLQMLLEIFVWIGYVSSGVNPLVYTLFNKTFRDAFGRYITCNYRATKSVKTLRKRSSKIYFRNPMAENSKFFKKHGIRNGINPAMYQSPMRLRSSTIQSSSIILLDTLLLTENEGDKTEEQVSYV
Alpha-1B adrenergic receptor (Homo sapiens), sequence (P35368 whole entry): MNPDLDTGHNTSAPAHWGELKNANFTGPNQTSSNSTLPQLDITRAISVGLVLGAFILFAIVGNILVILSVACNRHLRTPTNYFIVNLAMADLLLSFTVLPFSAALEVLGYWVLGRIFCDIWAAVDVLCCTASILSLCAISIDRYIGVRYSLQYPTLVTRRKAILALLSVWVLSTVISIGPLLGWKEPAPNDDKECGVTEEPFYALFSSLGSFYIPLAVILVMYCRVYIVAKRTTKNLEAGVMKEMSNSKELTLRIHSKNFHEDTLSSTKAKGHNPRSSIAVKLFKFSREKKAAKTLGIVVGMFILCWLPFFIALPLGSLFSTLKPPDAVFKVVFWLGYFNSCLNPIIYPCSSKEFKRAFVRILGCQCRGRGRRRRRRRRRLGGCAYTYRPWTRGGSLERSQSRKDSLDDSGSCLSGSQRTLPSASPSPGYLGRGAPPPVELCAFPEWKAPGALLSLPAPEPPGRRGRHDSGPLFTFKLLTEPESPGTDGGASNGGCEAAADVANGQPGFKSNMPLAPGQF
Muscarinic acetylcholine receptor M2 (Homo sapiens), sequence (P08172 whole entry): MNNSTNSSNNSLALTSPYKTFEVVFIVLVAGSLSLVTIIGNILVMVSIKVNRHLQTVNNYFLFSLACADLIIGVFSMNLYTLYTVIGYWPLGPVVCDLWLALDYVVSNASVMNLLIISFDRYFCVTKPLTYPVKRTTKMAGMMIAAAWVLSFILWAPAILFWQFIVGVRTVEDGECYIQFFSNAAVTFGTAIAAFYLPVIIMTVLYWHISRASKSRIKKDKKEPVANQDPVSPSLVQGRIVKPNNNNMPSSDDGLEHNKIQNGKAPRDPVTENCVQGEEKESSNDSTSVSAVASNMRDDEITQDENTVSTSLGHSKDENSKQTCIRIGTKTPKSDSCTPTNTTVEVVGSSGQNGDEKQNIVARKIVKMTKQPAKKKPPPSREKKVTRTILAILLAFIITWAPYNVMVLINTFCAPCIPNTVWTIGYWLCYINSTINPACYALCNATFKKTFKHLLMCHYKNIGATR
5-hydroxytryptamine receptor 7 (Homo sapiens), sequence (P34969 whole entry): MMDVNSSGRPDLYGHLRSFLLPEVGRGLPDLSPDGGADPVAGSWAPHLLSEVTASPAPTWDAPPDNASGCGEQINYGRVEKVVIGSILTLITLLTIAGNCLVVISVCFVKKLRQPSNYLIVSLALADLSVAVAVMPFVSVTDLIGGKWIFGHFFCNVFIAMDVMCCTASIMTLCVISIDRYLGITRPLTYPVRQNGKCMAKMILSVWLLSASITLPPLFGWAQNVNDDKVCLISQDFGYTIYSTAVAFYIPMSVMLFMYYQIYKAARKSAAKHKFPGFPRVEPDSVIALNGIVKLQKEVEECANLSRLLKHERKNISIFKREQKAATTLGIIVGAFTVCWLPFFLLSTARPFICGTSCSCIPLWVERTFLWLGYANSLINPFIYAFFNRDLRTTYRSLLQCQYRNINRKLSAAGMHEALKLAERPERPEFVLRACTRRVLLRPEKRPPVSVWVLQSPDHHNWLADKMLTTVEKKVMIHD
Alpha-1A adrenergic receptor (Homo sapiens), sequence (P35348 whole entry): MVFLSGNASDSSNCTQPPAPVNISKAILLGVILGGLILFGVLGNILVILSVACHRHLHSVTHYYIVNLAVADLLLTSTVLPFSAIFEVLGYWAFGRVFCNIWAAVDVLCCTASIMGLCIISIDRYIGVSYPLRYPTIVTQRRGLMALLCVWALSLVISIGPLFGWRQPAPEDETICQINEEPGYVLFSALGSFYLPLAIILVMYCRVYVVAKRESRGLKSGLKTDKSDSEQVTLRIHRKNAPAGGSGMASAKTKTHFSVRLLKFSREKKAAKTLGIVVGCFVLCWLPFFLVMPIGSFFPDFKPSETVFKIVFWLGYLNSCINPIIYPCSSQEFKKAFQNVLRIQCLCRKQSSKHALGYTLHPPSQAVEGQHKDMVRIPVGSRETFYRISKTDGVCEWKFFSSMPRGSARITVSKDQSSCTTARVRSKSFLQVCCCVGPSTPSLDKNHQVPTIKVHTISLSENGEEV
Beta-2 adrenergic receptor (Homo sapiens), sequence (P07550 whole entry, looked up): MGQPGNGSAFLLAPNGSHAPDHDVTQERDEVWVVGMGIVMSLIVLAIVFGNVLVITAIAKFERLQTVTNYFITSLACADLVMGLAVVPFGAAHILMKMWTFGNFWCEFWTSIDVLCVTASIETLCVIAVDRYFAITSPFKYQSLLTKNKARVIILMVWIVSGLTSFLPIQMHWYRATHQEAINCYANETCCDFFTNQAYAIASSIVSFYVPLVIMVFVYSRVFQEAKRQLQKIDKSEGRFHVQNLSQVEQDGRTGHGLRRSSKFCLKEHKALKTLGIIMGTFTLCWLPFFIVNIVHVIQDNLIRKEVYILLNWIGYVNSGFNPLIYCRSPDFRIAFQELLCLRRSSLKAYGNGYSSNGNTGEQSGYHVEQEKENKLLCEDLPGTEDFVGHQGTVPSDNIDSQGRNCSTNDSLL
Beta-1 adrenergic receptor (Homo sapiens), sequence (P08588 whole entry, looked up): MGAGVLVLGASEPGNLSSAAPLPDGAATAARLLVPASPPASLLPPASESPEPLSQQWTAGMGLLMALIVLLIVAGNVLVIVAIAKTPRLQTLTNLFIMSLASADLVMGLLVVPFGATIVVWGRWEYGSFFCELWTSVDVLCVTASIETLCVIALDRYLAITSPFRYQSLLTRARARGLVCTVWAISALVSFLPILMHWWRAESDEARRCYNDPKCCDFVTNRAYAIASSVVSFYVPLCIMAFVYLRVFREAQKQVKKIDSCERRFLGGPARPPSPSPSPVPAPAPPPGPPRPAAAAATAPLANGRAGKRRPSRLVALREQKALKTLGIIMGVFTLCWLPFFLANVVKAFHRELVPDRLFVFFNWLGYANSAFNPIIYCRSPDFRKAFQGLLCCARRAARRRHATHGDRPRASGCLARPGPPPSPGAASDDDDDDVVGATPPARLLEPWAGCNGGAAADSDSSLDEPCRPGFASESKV
5-hydroxytryptamine receptor 2A (Homo sapiens), sequence (P28223 whole entry): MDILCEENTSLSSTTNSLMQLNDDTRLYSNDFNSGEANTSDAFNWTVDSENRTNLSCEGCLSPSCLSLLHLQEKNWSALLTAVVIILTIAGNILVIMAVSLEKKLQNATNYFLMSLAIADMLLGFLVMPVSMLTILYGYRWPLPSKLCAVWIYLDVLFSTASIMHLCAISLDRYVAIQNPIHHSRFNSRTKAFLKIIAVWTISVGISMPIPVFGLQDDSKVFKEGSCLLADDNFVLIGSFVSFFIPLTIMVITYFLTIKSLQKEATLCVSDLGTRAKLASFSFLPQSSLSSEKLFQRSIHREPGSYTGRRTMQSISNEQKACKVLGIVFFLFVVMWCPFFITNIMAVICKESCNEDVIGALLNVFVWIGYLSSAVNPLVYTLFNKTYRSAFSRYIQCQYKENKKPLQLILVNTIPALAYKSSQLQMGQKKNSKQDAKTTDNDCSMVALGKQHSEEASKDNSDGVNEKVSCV
Transient receptor potential cation channel subfamily M member 8, sequence (Q7Z2W7 whole entry): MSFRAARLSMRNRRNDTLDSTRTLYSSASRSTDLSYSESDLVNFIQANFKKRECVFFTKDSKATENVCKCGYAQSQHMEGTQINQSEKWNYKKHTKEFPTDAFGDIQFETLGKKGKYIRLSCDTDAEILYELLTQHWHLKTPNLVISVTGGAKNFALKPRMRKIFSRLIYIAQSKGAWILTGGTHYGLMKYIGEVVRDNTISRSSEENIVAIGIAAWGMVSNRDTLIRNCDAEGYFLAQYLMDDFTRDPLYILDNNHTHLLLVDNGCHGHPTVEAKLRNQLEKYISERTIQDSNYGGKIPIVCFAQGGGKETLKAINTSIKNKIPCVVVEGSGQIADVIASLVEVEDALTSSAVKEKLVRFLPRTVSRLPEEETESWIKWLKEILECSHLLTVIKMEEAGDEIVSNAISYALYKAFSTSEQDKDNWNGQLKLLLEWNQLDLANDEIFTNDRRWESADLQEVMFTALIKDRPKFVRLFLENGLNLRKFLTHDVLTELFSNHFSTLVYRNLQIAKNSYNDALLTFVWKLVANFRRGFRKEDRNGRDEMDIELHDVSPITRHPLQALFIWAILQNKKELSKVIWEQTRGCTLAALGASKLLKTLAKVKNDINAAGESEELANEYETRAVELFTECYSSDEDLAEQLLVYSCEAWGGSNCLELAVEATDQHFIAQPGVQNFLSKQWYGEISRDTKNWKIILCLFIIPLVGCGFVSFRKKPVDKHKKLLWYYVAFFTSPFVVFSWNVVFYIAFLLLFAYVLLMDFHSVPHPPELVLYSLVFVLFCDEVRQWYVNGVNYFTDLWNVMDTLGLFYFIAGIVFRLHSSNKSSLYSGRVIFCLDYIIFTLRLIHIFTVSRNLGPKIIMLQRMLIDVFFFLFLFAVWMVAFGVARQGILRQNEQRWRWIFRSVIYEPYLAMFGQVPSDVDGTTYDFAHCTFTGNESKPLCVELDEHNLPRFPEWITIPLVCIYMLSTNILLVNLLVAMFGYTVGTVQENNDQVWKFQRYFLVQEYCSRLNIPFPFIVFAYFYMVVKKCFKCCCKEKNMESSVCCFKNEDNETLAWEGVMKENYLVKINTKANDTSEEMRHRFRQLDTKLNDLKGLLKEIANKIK

C[C@H](c1ccc(F)cc1)N(Cc1ccc(Cl)c(C(=O)O)c1)C(=O)c1cnc2ccccc2c1 [PF-05257137] was tested, and the IC50 [1] was > 10 µM (not active), the inhibition [2] was -3.79% and the inhibition [3] was -7.94%. It also gave an inhibition [4] of -2.34%, an inhibition [5] of 21.8% and an inhibition [6] of -7.78%. For the same compound, the inhibition [7] was 14.3%, the inhibition [8] was 1.77% and the inhibition [9] was 11.3%. For the same compound, the inhibition [10] was 13.8%, the inhibition [11] was -0.95% and the inhibition [12] was 14.9%. For the same compound, the inhibition [13] was 12.8%, the inhibition [14] was -2.63% and the inhibition [15] was -9.65%. It also gave an inhibition [16] of 0.07%, an inhibition [17] of 12.4% and an inhibition [18] of -0.42%. The inhibition [19] was -0.14%, the inhibition [20] was -3.13% and the inhibition [21] was -8.13%. For the same compound, the inhibition [22] was 3.41%, the inhibition [23] was 11.5% and the inhibition [24] was -1.36%. The inhibition [25] was 17.7%, the inhibition [26] was 14.2% and the inhibition [27] was -0.35%. It also gave an inhibition [28] of 24.1%, an inhibition [29] of 14.5% and an inhibition [30] of 1.24%. For the same compound, the inhibition [31] was 39%, the inhibition [32] was 4.42% and the inhibition [33] was -1.1%. The inhibition [34] was -5.1%, the inhibition [35] was 28.3% and the inhibition [36] was -9.88%. The inhibition [37] was 10.1%.
